Laboratory results as given in patent publication US20130303509A1, “NAMPT INHIBITORS” (AbbVie Inc., priority 2012, published 2013).

The molecules below were run on PC3 cells (assay: NAMPT Cell Proliferation Assay). Details: Homo sapiens, PC-3, 120 h, 5 days incubation, cell viability by Cell Titer Glo.
Type: cell-based
Summary of the method: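 Five-day CellTiter-Glo viability readout in PC3 cells grown in RPMI/10% heat-inactivated FBS. Compounds added after overnight attachment as a 10-fold dilution series, […]. Percent inhibition fitted to sigmoidal dose-response to derive IC50.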

Question: `O=C(Nc1ccc(OC2CN(C(=O)C3CCCO3)C2)cc1)C1CN(c2ccnnc2)C1` (centres unmarked) [Example 262, 1-(pyridazin-4-yl)-N-(4-{[1-(tetrahydrofuran-2-ylcarbonyl)azetidin-3-yl]oxy}phenyl)azetidine-3-carboxamide] was tested. Which IC50 did it give?
Answer: 119 nM

Question: With `CC(C)(C)OC(=O)N1CCC(Oc2ccc(C(=O)N[C@H]3CCN(c4cccnc4)C3)cc2)CC1` [Example 27, tert-butyl 4-(4-{[(3S)-1-(pyridin-3-yl)pyrrolidin-3-yl]carbamoyl}phenoxy)piperidine-1-carboxylate] as the molecule, how does the IC50 read?
Answer: > 10000 nM

Question: For `O=C(Nc1ccc(C2CCN(C(=O)Cc3cccc(C(F)(F)F)c3)CC2)cc1)[C@H]1CCN(c2cccnn2)C1` [Example 648, (3S)-1-(pyridazin-3-yl)-N-[4-(1-{[3-(trifluoromethyl)phenyl]acetyl}piperidin-4-yl)phenyl]pyrrolidine-3-carboxamide], which IC50 is on record?
Answer: 26.8 nM

Question: With `CC(C)(C(=O)N1CCC(c2ccc(NC(=O)C3CN(c4cccnc4)C3)cc2)CC1)N1CCNCC1` [Example 610, N-(4-{1-[2-methyl-2-(piperazin-1-yl)propanoyl]piperidin-4-yl}phenyl)-1-(pyridin-3-yl)azetidine-3-carboxamide] as the molecule, how does the IC50 read?
Answer: 7.9 nM

Question: How did the IC50 turn out when `O=C(Nc1ccc(C2CCN(C(=O)c3ccccc3)CC2)cc1)C1CN(c2cccnc2)C1` [Example 26, N-[4-(1-benzoylpiperidin-4-yl)phenyl]-1-(pyridin-3-yl)azetidine-3-carboxamide] was run?
Answer: 0.682 nM

Question: With `O=C(Nc1ccc(C2CCN(C(=O)c3cccc(OC(F)(F)F)c3)CC2)cc1)C1CN(c2cccnn2)C1` [Example 356, 1-(pyridazin-3-yl)-N-(4-{1-[3-(trifluoromethoxy)benzoyl]piperidin-4-yl}phenyl)azetidine-3-carboxamide] as the molecule, how does the IC50 read?
Answer: 9.09 nM

Question: For `Cc1ncccc1N1CC(C(=O)Nc2ccc(C3CCN(C(=O)c4cccs4)CC3)cc2)C1` [Example 187, 1-(2-methylpyridin-3-yl)-N-{4-[1-(thiophen-2-ylcarbonyl)piperidin-4-yl]phenyl}azetidine-3-carboxamide], which IC50 is on record?
Answer: 20.6 nM

Question: `O=C(Nc1ccc(C2CCN(C(=O)Cc3cccc(C(F)(F)F)c3)CC2)cc1)C1CN(c2cccnn2)C1` [Example 403, 1-(pyridazin-3-yl)-N-[4-(1-{[3-(trifluoromethyl)phenyl]acetyl}piperidin-4-yl)phenyl]azetidine-3-carboxamide] was tested. Which IC50 did it give?
Answer: 4.1 nM

Question: How did the IC50 turn out when `CC(C)(O)C(=O)N1CCC(c2ccc(NC(=O)C3CN(c4cnccc4C#N)C3)cc2)CC1` [Example 97, 1-(4-cyanopyridin-3-yl)-N-{4-[1-(2-hydroxy-2-methylpropanoyl)piperidin-4-yl]phenyl}azetidine-3-carboxamide] was run?
Answer: 922 nM

Question: With `O=C(Nc1ccc(O[C@@H]2CCN(C(=O)c3ccccn3)C2)cc1)C1CN(c2cccnn2)C1` [Example 505, 1-(pyridazin-3-yl)-N-(4-{[(3R)-1-(pyridin-2-ylcarbonyl)pyrrolidin-3-yl]oxy}phenyl)azetidine-3-carboxamide] as the molecule, how does the IC50 read?
Answer: 6.84 nM

Question: `O=C(Nc1ccc(OC2CCN(C(=O)c3cccc(OC(F)(F)F)c3)CC2)cc1)C1CN(c2ccnnc2)C1` [Example 292, 1-(pyridazin-4-yl)-N-[4-({1-[3-(trifluoromethoxy)benzoyl]piperidin-4-yl}oxy)phenyl]azetidine-3-carboxamide] was tested. Which IC50 did it give?
Answer: 93.4 nM

Question: Which IC50 does the source give for `CC(C)C(C)C(=O)N1CCC(c2ccc(NC(=O)C3CN(c4cccnn4)C3)cc2)CC1` (centres unmarked) [Example 326, N-{4-[1-(2,3-dimethylbutanoyl)piperidin-4-yl]phenyl}-1-(pyridazin-3-yl)azetidine-3-carboxamide] here?
Answer: 5.77 nM

Question: For `O=C(Nc1ccc(O[C@@H]2CCN(C(=O)c3ccc(F)c(F)c3)C2)cc1)C1CN(c2cccnn2)C1` [Example 493, N-(4-{[(3R)-1-(3,4-difluorobenzoyl)pyrrolidin-3-yl]oxy}phenyl)-1-(pyridazin-3-yl)azetidine-3-carboxamide], which IC50 is on record?
Answer: 6.73 nM

Question: With `O=C(Nc1ccc(OC2CCN(C(=O)c3ccccc3F)CC2)cc1)C1CN(c2ccnnc2)C1` [Example 289, N-(4-{[1-(2-fluorobenzoyl)piperidin-4-yl]oxy}phenyl)-1-(pyridazin-4-yl)azetidine-3-carboxamide] as the molecule, how does the IC50 read?
Answer: 53.2 nM
